The numbers were not newly measured in US20260234616A1, “CELL-PENETRATING PEPTIDES, CONJUGATES THEREOF, AND METHODS OF THEIR USE” (PepGen Inc., priority 2022, published 2026), which cites them from elsewhere.

For the data set, the system named is dystrophin. To be noted: DMD patients; reported by the sponsor.

Take eteplirsen: the “levels of dystrophin restoration in patients” value is listed as “approximately 1 % of normal”.
